According to patent US20250288588A1, “SUBSTITUTED IMIDAZOPYRIDINES AND IMIDAZOPYRIMIDINES, AND USE OF SAME FOR TREATING, AMELIORATING, AND/OR PREVENTING RETINAL DEGENERATION” (Yale University, priority 2022, published 2025):

Legend:
Format in all cases: cell-based
[1] = test system: Human ARPE-19 cells; assay: TBHP oxidative stress-induced cell death, cell viability (RealTime-Glo MT); conditions: for cell viability after exposure to TBHP / protection from oxidative stress-induced cell death: p<0.0001; for protection from oxidative stress-induced cell death: FIG. 3, 0.6 μM compound preincubated 24 hours
Experimental: Immortalized human RPE cells (ARPE-19) obtained from the American Type Culture Collection (ATCC, Manassas, VA, USA) were cultured in Dulbecco's modified Eagle's medium (DMEM; Thermo Fisher Scientific, Waltham, MA) containing 10% fetal bovine serum (FBS), 100 IU/mL penicillin, 100 μg/mL streptomycin, 100 μg/mL gentamicin, and 2.5 μg/mL amphotericin B (Thermo Fisher Scientific).
Human ARPE-19 cells were plated in 96-well plates for 24 hours in DMEM supplemented with FBS and antibiotics. ARPE-19 cells were preincubated with either ciclopirox olamine (Sigma), compound 414 (Chemical Diversity, San Diego, CA), compound 434 (Chemical Diversity) or no compound for 24 hours and then exposed to varying concentrations of tert-butyl hydroperoxide (TBHP; Sigma-Aldrich, St. Louis, MO) the next day for 24 hours. Cell viability was measured the following day by RealTime-Glo™ MT cell viability assay (Promega, Madison, WI) using a BioTek FLx800™ fluorescence reader (BioTek, Winooski, VT).
Human ARPE-19 cells (CRL-2302; American Type Culture Collection) were preincubated with 0.9 μM of DH381-2 and DH421 for 24 hours and then exposed to 300 μM tert-butyl hydroperoxide (TBHP) to induce cell death for 24 hours.
Human ARPE-19 cells (CRL-2302; American Type Culture Collection) were preincubated with 0.9 μM of DH421 for 24 hours and then exposed to 250 μM tert-butyl hydroperoxide (TBHP) to induce cell death for 24 hours.
Human ARPE-19 cells (CRL-2302; American Type Culture Collection) with preincubated with 0.6 μM of compound DH421 or DH381-2 for 24 hours and then exposed to 300 μM tert-butyl hydroperoxide (TBHP) to induce cell death for 24 hours. Protective effects on human ARPE-19 cells treated with DH421 and DH381-2. **** p<0.0001.

[2] = test system: Human ARPE-19 cells; assay: Blue light damage, cell viability (RealTime-Glo MT); conditions: FIG. 4, 0.6 μM compound preincubated 24 hours, then blue light 156.7 LUX for 36 hours
Experimental: Human ARPE-19 cells were plated in 96-well plates for 24 hours in DMEM supplemented with FBS and antibiotics. The cells were preincubated with drug for 24 hours and then exposed to blue light (156.7 LUX for 36 hours). Cell viability was measured after 36 hours of blue light exposure using RealTime-Glo MT assays (Promega) with a BioTek FLx800 fluorescence reader (Bio Tek, Winooski, VT).
Human ARPE-19 cells (CRL-2302; American Type Culture Collection) were preincubated with 0.6 μM of compound DH421 or DH381-2 for 24 hours and then exposed to blue light (156.7 LUX for 36 hours). Protective effect of compound DH421 or DH381-2 on human ARPE-19 cells exposed to blue light (156.7 LUX for 36 hours). * p<0.05, *** p<0.01.

[3] = test system: Human ARPE-19 cells; assay: Cell viability on nitrite-modified extracellular matrix (ECM); conditions: FIG. 5, 1 μM, 3 μM, and 10 μM compound, seeded onto nitrite-modified ECM for 24 hours
Experimental: Immortalized human RPE (ARPE-19) cells were obtained from the ATCC, cultured, and maintained in DMEM (Invitrogen-Gibco, Life Technologies) containing 10% FBS, 100 IU/mL penicillin, 100 μg/mL streptomycin, and 100 μg/mL gentamicin (Invitrogen-Gibco, Life Technologies). These cells were incubated in a humidified atmosphere of 5% CO2 and 95% air at 37° C. ARPE-19 cells were grown on 24-well Transwell® permeable supports (Corning, Inc.) in 12-well plates or flat bottom 24-well plates for 6-8 weeks to allow the ECM to form. ARPE-19 cells were then removed by the addition of 20 mM ammonium hydroxide buffer for 20 min, and the ECM was washed with phosphate buffered saline (PBS). PBS was removed from the RPE-ECM plates and dried. Subsequently, 100 mM sodium nitrite was added to the ECM and incubated at 37° C. for 7 days. Plates were then washed with PBS and incubated with PBS for 4 hours. Finally, plates were washed with PBS to completely remove the nitrite. Cells are preincubated with drug for 24 hours and then seeded on nitrite-modified ECM for 24 hours. Cell viability was measured using RealTime-Glo MT assays (Promega) with a BioTek FLx800 fluorescence reader (Bio Tek, Winooski, VT). […]

[4] = test system: Human RPE cells; assay: TBHP oxidative stress-induced cell death, cell viability; conditions: FIG. 6, 0.6 μM compound preincubated 24 hours, then 300 μM TBHP 24 hours, p<0.0001
Experimental: Human RPE cells were preincubated with 0.6 μM of compound DH421 or DH381-2 for 24 hours and then exposed to 300 μM tert-butyl hydroperoxide (TBHP) to induce cell death for 24 hours. Protective effects on human RPE cells treated with DH421 and DH381-2. **** p<0.0001.

[5] = test system: Human RPE cells; assay: Blue light damage, cell viability; conditions: FIG. 7, 0.6 μM compound preincubated 24 hours, then blue light 156.7 LUX for 36 hours
Experimental: Human RPE cells were preincubated with 0.6 μM of compound DH421 or DH381-2 for 24 hours and then exposed to blue light (156.7 LUX for 36 hours). Protective effect of compound DH421 or DH381-2 on human RPE cells exposed to blue light (156.7 LUX for 36 hours). * p<0.05, *** p<0.01.

[6] = test system: Human RPE cells; assay: Cell viability on nitrite-modified extracellular matrix (ECM); conditions: FIG. 8, 1 μM compound, seeded onto nitrite-modified ECM for 24 hours, p<0.05
Experimental: Human RPE cells were treated with 1 μM of compound DH421 or DH381-2 and then seeded onto nitrite-modified ECM and untreated (normal) ECM for 24 hours. Protective effects of compound DH421 or DH381-2 on RPE cells seeded onto nitrite-modified ECM. *p<0.05.

[7] = test system: Human RPE cells; assay: Mitochondrial function after TBHP (oxygen consumption rate, Seahorse XF analyzer); conditions: FIGS. 9A-9B, 1 μM compound preincubated 18 hours, then 300 μM TBHP 24 hours; for ATP production compared to TBHP-treated group: p<0.001
Experimental: Human RPE cells were preincubated with 1 μM of compound DH381-2 and DH421 for 18 hours and then treated with 300 μM tert-butyl hydroperoxide (TBHP) for 24 hours. Oxygen consumption rate (OCR) was determined by Seahorse XF analyzer to measure mitochondrial function.

[8] = test system: Human RPE cells; assay: CellTox Green Cytotoxicity Assay; conditions: FIG. 10, 1 μM compound preincubated 24 hours
Experimental: Human RPE cells were preincubated with 1 μM of compound DH381-2 and DH421 for 24 hours. Cell toxicity was measured by CellTox Green Cytotoxicity Assay in human RPE cells after treatment with TBHP and compounds DH381-2 and DH421.

[9] = FIG. 1, 0.9 μM compound preincubated 24 hours, then 300 μM TBHP 24 hours

Q: What does the source list for `Oc1ccc(Br)cc1-c1nc2ncccn2c1Nc1ccccn1` [DH381-2, 4-bromo-2-(3-(pyridin-2-ylamino)imidazo[1,2-a]pyrimidin-2-yl)phenol]?
A: cell viability after exposure to TBHP [1, 9]: significantly increased cell viability; protection from oxidative stress-induced cell death ([1]; then 300 μM TBHP 24 hours): protected; protection from blue light damage [2]: protected; cell viability on nitrite-modified ECM [3]: enhanced; protection from oxidative stress-induced cell death [4]: protected; protection from blue light damage [5]: protected; cell viability on nitrite-modified ECM [6]: enhanced; mitochondrial function (oxygen consumption rate) after oxidative stress [7]: improved mitochondrial function; ATP production compared to TBHP-treated group [7]: increased ATP production; cytotoxicity level [8]: not affected

Q: What does the source list for `CCc1cccc(C)c1Nc1c(-c2cc(Br)ccc2O)nc2ccccn12` [DH421, 4-bromo-2-(3-((2-ethyl-6-methylphenyl)amino)imidazo[1,2-a]pyridin-2-yl)phenol]?
A: cell viability after exposure to TBHP [1, 9]: significantly increased cell viability; effect on cell growth suppression ([1]; FIG. 2, 0.9 μM compound): no effect on cell growth suppression; cell viability after exposure to TBHP ([1]; FIG. 2, 0.9 μM compound preincubated 24 hours, then 250 μM TBHP 24 hours): significantly increased cell viability; protection from oxidative stress-induced cell death ([1]; then 300 μM TBHP 24 hours): protected; protection from blue light damage [2]: protected; cell viability on nitrite-modified ECM [3]: enhanced; protection from oxidative stress-induced cell death [4]: protected; protection from blue light damage [5]: protected; cell viability on nitrite-modified ECM [6]: enhanced; mitochondrial function (oxygen consumption rate) after oxidative stress [7]: improved mitochondrial function; ATP production compared to TBHP-treated group [7]: increased ATP production; cytotoxicity level [8]: not affected
